Source: PubChem BioAssay (NCI)
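GI50 is the concentration that inhibits growth by half. TGI denotes the concentration required for complete inhibition of growth.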

Legend:
Experiment in all cases: inhibition of tumour cell growth, NCI panel, 384-well format
[1] = test system: COLO 205 colon
[2] = test system: PC-3 prostate
[3] = test system: A549 NSCLC
[4] = test system: RXF 393 renal
[5] = test system: NCI-H226 lung
[6] = test system: SF-539 CNS
[7] = test system: SR leukemia
[8] = test system: UO-31 renal
[9] = test system: MDA-MB-231 breast
[10] = test system: RPMI-8226 leukemia
[11] = test system: SW-620 colon
[12] = test system: OVCAR-3 ovarian
[13] = test system: BT-549 breast

CC(C)N(CCCNC(=O)Nc1ccc(C(C)(C)C)cc1)C[C@H]1O[C@@H](n2ccc3c(N)ncnc32)[C@H](O)[C@@H]1O
GI50 [1]: > 100 µM | TGI [1]: > 100 µM | GI50 [2]: > 100 µM | TGI [2]: > 100 µM | GI50 [3]: > 100 µM | TGI [3]: > 100 µM | GI50 [4]: > 100 µM | TGI [4]: > 100 µM | GI50 [5]: > 100 µM | TGI [5]: > 100 µM | GI50 [6]: > 100 µM | TGI [6]: > 100 µM | GI50 [7]: > 100 µM | TGI [7]: > 100 µM | GI50 [8]: > 100 µM | TGI [8]: > 100 µM | GI50 [9]: > 100 µM | TGI [9]: > 100 µM | GI50 [10]: 18.9 µM | TGI [10]: > 100 µM | GI50 [11]: > 100 µM | TGI [11]: > 100 µM | GI50 [12]: > 100 µM | TGI [12]: > 100 µM | GI50 [13]: > 100 µM | TGI [13]: > 100 µM

[2H]c1nc(C)nc([2H])c1-c1cc(NC[C@@H](C)c2cccc3c(C(=O)NC)ccnc23)ncn1
GI50 [1]: > 100 µM | TGI [1]: > 100 µM | GI50 [2]: > 100 µM | TGI [2]: > 100 µM | GI50 [3]: > 100 µM | TGI [3]: > 100 µM | GI50 [4]: > 100 µM | TGI [4]: > 100 µM | GI50 [5]: > 100 µM | TGI [5]: > 100 µM | GI50 [6]: > 100 µM | TGI [6]: > 100 µM | GI50 [7]: 18.9 µM | TGI [7]: 50.3 µM | GI50 [8]: > 100 µM | TGI [8]: > 100 µM | GI50 [9]: > 100 µM | TGI [9]: > 100 µM | GI50 [10]: 70.2 µM | TGI [10]: > 100 µM | GI50 [11]: > 100 µM | TGI [11]: > 100 µM | GI50 [12]: > 100 µM | TGI [12]: > 100 µM | GI50 [13]: > 100 µM | TGI [13]: > 100 µM
